From patent US8318749B2, “Quinazoline derivatives as NK3 receptor antagonists” (Hoffmann-La Roche Inc., priority 2008, dated 2012)

Target: T1, recombinant human NK3 receptor (Homo sapiens, UniProt P29371)
T1 construct: expressed in transfected cells; host or cells: HEK293 cells (transient expression), membrane preparation
T1 sequence (P29371 1-465): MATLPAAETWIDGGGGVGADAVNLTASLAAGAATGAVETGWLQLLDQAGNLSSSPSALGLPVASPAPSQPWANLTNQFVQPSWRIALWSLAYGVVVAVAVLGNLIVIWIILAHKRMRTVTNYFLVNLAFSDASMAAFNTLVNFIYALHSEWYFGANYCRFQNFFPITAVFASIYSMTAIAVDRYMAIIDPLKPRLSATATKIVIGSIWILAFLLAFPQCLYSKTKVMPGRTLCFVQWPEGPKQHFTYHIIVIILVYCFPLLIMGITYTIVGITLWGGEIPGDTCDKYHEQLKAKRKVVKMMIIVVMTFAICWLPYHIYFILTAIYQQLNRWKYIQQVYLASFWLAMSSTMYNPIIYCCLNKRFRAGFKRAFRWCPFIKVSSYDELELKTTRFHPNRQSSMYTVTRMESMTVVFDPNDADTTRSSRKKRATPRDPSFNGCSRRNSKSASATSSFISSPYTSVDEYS
Assay: [3H]SR142801 competition binding assay
Conditions: membrane from HEK293 cells transiently expressing recombinant human NK3 receptor; radioligand [3H]SR142801; 75 min at RT
Description: [^3H]SR142801 Competition Binding Assay
hNK3 receptor binding experiment were performed using [^3H]SR142801 (Catalog No. TRK1035, specific activity: 74.0 Ci/mmol, Amersham, GE Healthcare UK limited, Buckinghamshire, UK) and membrane isolated from HEK293 cells transiently expressing recombinant human NK3 receptor. After thawing, the membrane homogenates were centrifuged at 48,000×g for 10 min at 4° C., the pellets were resuspended in the 50 mM Tris-HCl, 4 mM MnCl2, 1 μM phosphoramidon, 0.1% BSA binding buffer at pH 7.4 to a final assay concentration of 5 μg protein/well. […] At the end of the incubation, membranes were filtered onto unitfilter (96-well white microplate with bonded GF/C filter preincubated 1 h in 0.3% PEI+0.3% BSA, Packard BioScience, Meriden, Conn.) with a Filtermate 196 harvester (Packard BioScience) and washed 4 times with ice-cold 50 mM Tris-HCl, pH 7.4 buffer. Nonspecific binding was measured in the presence of 10 μM SB222200 for both radioligands. The radioactivity on the filter was counted (5 min) on a Packard Top-count microplate scintillation counter with quenching correction after addition of 45 μl of microscint 40 (Canberra Packard S.A., Zürich, Switzerland) and shaking for 1 h. Inhibition curves were fitted according to the Hill equation: y=100/(1+(x/IC50)^nH), where nH=slope factor using Excel-fit 4 software (Microsoft). IC50 values were derived from the inhibition curve and the affinity constant (Ki) values were calculated using the Cheng-Prussoff equation Ki=IC50/(1+[L]/KD) where [L] is the concentration of radioligand and KD is its dissociation constant at the receptor, derived from the saturation isotherm. All experiments were performed in duplicate and the mean±standard error (SEM) of the individual Ki values was calculated.

Compound | Ki [nM]
COc1cc2nc(N3CCC(Cc4ccccc4)(C(=O)NC4CCc5ccccc5C4)CC3)nc(O)c2cc1OC (stereo not shown) [Example 58, 4-Benzyl-1-(4-hydroxy-6,7-dimethoxy-quinazolin-2-yl)-piperidine-4-carboxylic acid (1,2,3,4-tetrahydro-naphthalen-2-yl)-amide] | 3.8
COc1cc2nc(N3CCC(Cc4ccccc4)(C(=O)Nc4cnn(C)c4)CC3)nc(O)c2cc1OC [Example 59, 4-Benzyl-1-(4-hydroxy-6,7-dimethoxy-quinazolin-2-yl)-piperidine-4-carboxylic acid (1-methyl-1H-pyrazol-4-yl)-amide] | 39.1
COc1cc2nc(N3CCC(Cc4ccccc4)(C(=O)NC4Cc5cc(Cl)ccc5C4O)CC3)nc(O)c2cc1OC (stereo not shown) [Example 65, 4-Benzyl-1-(4-hydroxy-6,7-dimethoxy-quinazolin-2-yl)-piperidine-4-carboxylic acid (5-chloro-1-hydroxy-indan-2-yl)-amide] | 51.6
COc1cc2nc(N3CCC(Cc4ccccc4)(C(=O)NCC4CCC4)CC3)nc(O)c2cc1OC [Example 67, 4-Benzyl-1-(4-hydroxy-6,7-dimethoxy-quinazolin-2-yl)-piperidine-4-carboxylic acid cyclobutylmethyl-amide] | 47.9
COc1cc2nc(N3CCC(Cc4ccccc4)(C(=O)NC4CCc5ccccc5C4O)CC3)nc(O)c2cc1OC (stereo not shown) [Example 68, 4-Benzyl-1-(4-hydroxy-6,7-dimethoxy-quinazolin-2-yl)-piperidine-4-carboxylic acid (1-hydroxy-1,2,3,4-tetrahydro-naphthalen-2-yl)-amide] | 83.9
COc1cc2nc(N3CCC(CC(C)C)(C(=O)NCc4ccccc4)CC3)nc(N)c2cc1OC [Example 70, 1-(4-Amino-6,7-dimethoxy-quinazolin-2-yl)-4-isobutyl-piperidine-4-carboyxlic acid benzylamide] | 64
COc1cc2nc(N3CCC(CC4CC4)(C(=O)NCc4ccccc4)CC3)nc(O)c2cc1OC [Example 72, 4-Cyclopropylmethyl-1-(4-hydroxy-6,7-dimethoxy-quinazolin-2-yl)-piperidine-4-carboxylic acid benzylamide] | 38.3
COc1cc2nc(N3CCC(CC4CC4)(C(=O)N(C)Cc4ccccc4)CC3)nc(O)c2cc1OC [Example 75, 4-Cylcopropylmethyl-1-(4-hydroxy-6,7-dimethoxy-quinazolin-2-yl)-piperidine-4-carobxylic acid benzyl-methyl-amide] | 47.8
COc1cc2nc(N3CCC(CC4CCC4)(C(=O)NCc4ccccc4)CC3)nc(O)c2cc1OC [Example 76, 4-Cyclobutylmethyl-1-(4-hydroxy-6,7-dimethoxy-quinazolin-2-yl)-piperidine-4-carboxylic acid benzylamide] | 5.8
COc1cc2nc(N3CCC(CC4CCC4)(C(=O)NC4CCc5ccccc5C4)CC3)nc(O)c2cc1OC (stereo not shown) [Example 77, 4-Cylcobutylmethyl-1-(4-hydroxy-6,7-dimethoxy-quinazolin-2-yl)-piperidine-4-carboxylic acid (1,2,3,4-tetrahydro-naphthalen-2-yl)-amide] | 36.2
COc1cc2nc(N3CCC(CC4CCC4)(C(=O)NC4CCCC4)CC3)nc(O)c2cc1OC [Example 78, 4-Cyclobutylmethyl-1-(4-hydroxy-6,7-dimethoxy-quinazolin-2-yl)-piperidine-4-carboxylic acid cyclopentylamide] | 66
COc1cc2nc(N3CCC(CC4CCC4)(C(=O)NC4Cc5ccccc5C4)CC3)nc(O)c2cc1OC [Example 79, 4-Cyclobutylmethyl-1-(4-hydroxy-6,7-dimethoxy-quinazolin-2-yl)-piperidine-4-carboxylic acid indan-2-ylamide] | 83
COc1cc2nc(N3CCC(CC4CCC4)(C(=O)N(C)Cc4ccccc4)CC3)nc(O)c2cc1OC [Example 80, 4-Cyclobutylmethyl-1-(4-hydroxy-6,7-dimethoxy-quinazolin-2-yl)-piperidine-4-carboxylic acid benzyl-methyl-amide] | 7.6
COc1cc2nc(N3CCC(Cc4ccccc4)(C(=O)NCc4ccccc4)CC3)nc(O)c2cc1OC(C)C [Example 91, 4-Benzyl-1-(4-hydroxy-6-isopropoxy-7-methoxy-quinazolin-2-yl)-piperidine-4-carboxylic acid benzylamide] | 5.4
COc1cc2c(O)nc(N3CCC(Cc4ccccc4)(C(=O)NCc4ccccc4)CC3)nc2cc1OC(C)C [Example 92, 4-Benyzl-1-(4-hydroxy-7-isopropoxy-6-methoxy-quinazolin-2-yl)-piperidine-4-carboxylic acid benzylamide] | 21.5
CCOc1cc2nc(N3CCC(Cc4ccccc4)(C(=O)NCc4ccccc4)CC3)nc(O)c2cc1OC(F)F [Example 94, 4-Benzyl-1-(6-difluoromethoxy-7-ethoxy-4-hydroxy-quinazolin-2-yl)-piperidine-4-carboxylic acid benzylamide] | 8.3
COc1cc2nc(N3CCC(Cc4ccccc4)(C(=O)NCc4ccccc4)CC3)nc(O)c2cc1C#N [Example 97, 4-Benzyl-1-(6-cyano-4-hydroxy-7-methoxy-quinazolin-2-yl)-piperidine-4-carboxylic acid benzylamide] | 15.8

Now from value to compound:

Ki [nM] | Compound
97.5 | CC(C)Oc1ccc2nc(N3CCC(Cc4ccccc4)(C(=O)NCc4ccccc4)CC3)nc(O)c2c1 [Example 83, 4-Benzyl-1-(4-hydroxy-6-isopropoxy-quinazolin-2-yl)-piperidine-4-carboxylic acid benzylamide]
9.3 | COc1cc2nc(N3CCC(Cc4ccccc4)(C(=O)NCc4ccccc4)CC3)nc(O)c2cc1F [Example 88, 4-Benzyl-1-(6-fluoro-4-hydroxy-7-methoxy-quinazolin-2-yl)-piperidine-4-carboxylic acid benzylamide]
11.5 | O=C(NCc1ccccc1)C1(Cc2ccccc2)CCN(c2nc(O)c3ccc(OC(F)F)cc3n2)CC1 [Example 89, 4-Benzyl-1-(7-difluoromethoxy-4-hydroxy-quinazolin-2-yl)-piperidine-4-carboxylic acid benzylamide]
13.3 | COc1cc2nc(N3CCC(Cc4ccccc4)(C(=O)NCc4ccccc4)CC3)nc(O)c2cc1C [Example 90, 4-Benzyl-1-(4-hydroxy-7-methoxy-6-methyl-quinazolin-2-yl)-piperidine-4-carboxylic acid benzylamide]
9.2 | COc1cc2nc(N3CCC(Cc4ccccc4)(C(=O)NCc4ccccc4)CC3)nc(O)c2cc1Cl [Example 93, 4-Benzyl-1-(6-chloro-4-hydroxy-7-methoxy-quinazolin-2-yl)-piperidine-4-carboxylic acid benzylamide]
5.1 | COc1ccc2c(O)nc(N3CCC(Cc4ccccc4)(C(=O)NCc4ccccc4)CC3)nc2c1 [Example 95, 4-Benzyl-1-(4-hydroxy-7-methoxy-quinazolin-2-yl)-piperidine-4-carboxylic acid benzylamide]
11.2 | CC(C)Oc1ccc2c(O)nc(N3CCC(Cc4ccccc4)(C(=O)NCc4ccccc4)CC3)nc2c1 [Example 96, 4-Benzyl-1-(4-hydroxy-7-isopropoxy-quinazolin-2-yl)-piperidine-4-carboxylic acid benzylamide]
6.1 | O=C(NCc1ccccc1)C1(Cc2ccccc2)CCN(c2nc(O)c3ccc(C(F)(F)F)cc3n2)CC1 [Example 98, 4-Benzyl-1-(4-hydroxy-7-trifluoromethyl-quinazolin-2-yl)-piperidine-4-carboxylic acid benzylamide]
4.9 | O=C(NCc1ccccc1)C1(Cc2ccccc2)CCN(c2nc(O)c3ccc(OC(F)(F)F)cc3n2)CC1 [Example 99, 4-Benzyl-1-(4-hydroxy-7-trifluoromethoxy-quinazolin-2-yl)-piperidine-4-carboxylic acid benzylamide]

Tested on: not given
Assay: not given
Conditions: phase II trial; altered behaviour, delusion, hallucinations, extreme emotions, excited motor activity, incoherent speech; cited from earlier work

Compound | activity on positive symptoms of schizophrenia
CC(=O)N(C)C1(c2ccccc2)CCN(CCC[C@]2(c3ccc(Cl)c(Cl)c3)CCCN(C(=O)c3ccccc3)C2)CC1 [SR 142,801, Osanetant] | active

Same assay, conditions: phase II trial; depression, anhedonia, social isolation or memory and attention deficits; cited from earlier work

Compound | activity in the treatment of negative symptoms
CC(=O)N(C)C1(c2ccccc2)CCN(CCC[C@]2(c3ccc(Cl)c(Cl)c3)CCCN(C(=O)c3ccccc3)C2)CC1 [SR 142,801, Osanetant] | inactive
